According to PMC9388626, “STUB1 is an intracellular checkpoint for interferon gamma sensing” (Scientific Reports, 2022):

Test system: B16-F10 cells
Test: Flow cytometry, surface MHC-I on CRISPR-edited cells with IFNγ
Type: cell-based, murine
Settings: for Surface MHC-I relative to Parental (Fig. 1c): Parental = 1.00
Method: Parental, CRISPR-edited or biologic-overexpressed tumour cells were seeded in a cell density of 60,000 (B16-F10), 150,000 (CT26), 100,000 (A375), or 200,000 (A549) per well in 12-well plate filled with 0.8 ml culture media + 10% FBS. After overnight incubation, the culture media were replaced with 1 ml fresh media supplemented with 10% FBS and the designated concentration of the recombinant mouse IFNγ (R&D Systems, #485-MI-100) or recombinant human IFNγ (R&D Systems, #285-IF-100). […]
Cells were dissociated from the wells with 0.25% trypsin (Gibco, 25200056). After rinsing with 0.5 ml PBS, each sample was stained with the LIVE/DEAD Fixable Aqua dead cell staining solution (Life Technologies, L34957) in 100 µl PBS (1:1000 dilution) for 15 min at 4 °C. After rinsing with 2 × 0.5 ml PBS, each sample was stained with the corresponding primary antibody-dye conjugates diluted in 100 µl Pharmingen stain buffer (BD Biosciences, #554657). After 1 h staining at 4 °C, the cells were rinsed with 2 × 2 ml Pharmingen stain buffer and fixed with 4.21% (w/w) formaldehyde (BD Biosciences, #554655). Cells were analyzed on LSRFortessa X-20 (BD Biosciences) with appropiate fluorescence compensation. The data were analyzed using FlowJo. Cells were gated based on FSC and SSC. Single cells were selected using FSC-A and FSC-H and viable cells were selected using LIVE/DEAD signal. Primary antibodies used were: H-2K^b/H-2D^b (FITC, Biolegend, #114606, 1:50 dilution), HLA-A,B,C (FITC, Biolegend, #311404, 1:100 dilution), mouse IFNGR1 (PE, Invitrogen, #12-1191-82, 1:50 dilution), human IFNGR1 (PE, Miltenyi, #130-125-851, 1:50 dilution), mouse IL1R1 (APC, Biolegend, #113509, 1:20 dilution), mouse IL6R (APC, Biolegend, #115812, 1:20 dilution), mouse IFNAR1 (APC, Biolegend, #127314, 1:20 dilution), and mouse GP130 (PE, Biolegend, #149404, 1:100 dilution).

For “gStub1 #1 (guide GCATTGCTAAGAAGAAGCGC; chemistry not given here)”, the “Surface MHC-I (Fig. 1b)” value (IFNg 0.01 ng/ml, replicate 1) was 389, the “Surface MHC-I relative to Parental (Fig. 1c)” value (IFNg 0.01 ng/ml, replicate 1) was 1.67 and the “Surface MHC-I (Fig. 1b)” value (IFNg 0.01 ng/ml, replicate 2) was 629. For the same substance, the “Surface MHC-I relative to Parental (Fig. 1c)” value (IFNg 0.01 ng/ml, replicate 2) was 1.88, the “Surface MHC-I (Fig. 1b)” value (IFNg 0.01 ng/ml, replicate 3) was 890 and the “Surface MHC-I relative to Parental (Fig. 1c)” value (IFNg 0.01 ng/ml, replicate 3) was 2.53. The “Surface MHC-I (Fig. 1b)” value (IFNg 0.01 ng/ml, replicate 4) was 1203, the “Surface MHC-I relative to Parental (Fig. 1c)” value (IFNg 0.01 ng/ml, replicate 4) was 4.12 and the “Surface MHC-I (Fig. 1b)” value (IFNg 0.03 ng/ml, replicate 1) was 1830. The “Surface MHC-I relative to Parental (Fig. 1c)” value (IFNg 0.03 ng/ml, replicate 1) was 6.85, the “Surface MHC-I (Fig. 1b)” value (IFNg 0.03 ng/ml, replicate 2) was 1489 and the “Surface MHC-I relative to Parental (Fig. 1c)” value (IFNg 0.03 ng/ml, replicate 2) was 3.84. The “Surface MHC-I (Fig. 1b)” value (IFNg 0.03 ng/ml, replicate 3) was 2317, the “Surface MHC-I relative to Parental (Fig. 1c)” value (IFNg 0.03 ng/ml, replicate 3) was 4.36 and the “Surface MHC-I (Fig. 1b)” value (IFNg 0.03 ng/ml, replicate 4) was 3040. For the same substance, the “Surface MHC-I relative to Parental (Fig. 1c)” value (IFNg 0.03 ng/ml, replicate 4) was 6.59, the “Surface MHC-I (Fig. 1b)” value (IFNg 0.10 ng/ml, replicate 1) was 1622 and the “Surface MHC-I relative to Parental (Fig. 1c)” value (IFNg 0.10 ng/ml, replicate 1) was 4.52. For the same substance, the “Surface MHC-I (Fig. 1b)” value (IFNg 0.10 ng/ml, replicate 2) was 2825, the “Surface MHC-I relative to Parental (Fig. 1c)” value (IFNg 0.10 ng/ml, replicate 2) was 4.07 and the “Surface MHC-I (Fig. 1b)” value (IFNg 0.10 ng/ml, replicate 3) was 4165. The “Surface MHC-I relative to Parental (Fig. 1c)” value (IFNg 0.10 ng/ml, replicate 3) was 3.06, the “Surface MHC-I (Fig. 1b)” value (IFNg 0.10 ng/ml, replicate 4) was 5343 and the “Surface MHC-I relative to Parental (Fig. 1c)” value (IFNg 0.10 ng/ml, replicate 4) was 3.53. For the same substance, the “Surface MHC-I (Fig. 1b)” value (IFNg 0.30 ng/ml, replicate 1) was 3870, the “Surface MHC-I relative to Parental (Fig. 1c)” value (IFNg 0.30 ng/ml, replicate 1) was 4.44 and the “Surface MHC-I (Fig. 1b)” value (IFNg 0.30 ng/ml, replicate 2) was 3946. For the same substance, the “Surface MHC-I relative to Parental (Fig. 1c)” value (IFNg 0.30 ng/ml, replicate 2) was 3.12, the “Surface MHC-I (Fig. 1b)” value (IFNg 0.30 ng/ml, replicate 3) was 5512 and the “Surface MHC-I relative to Parental (Fig. 1c)” value (IFNg 0.30 ng/ml, replicate 3) was 2.33. For the same substance, the “Surface MHC-I (Fig. 1b)” value (IFNg 0.30 ng/ml, replicate 4) was 7772, the “Surface MHC-I relative to Parental (Fig. 1c)” value (IFNg 0.30 ng/ml, replicate 4) was 2.83 and the “Surface MHC-I (Fig. 1b)” value (IFNg 1.00 ng/ml, replicate 1) was 6610. For the same substance, the “Surface MHC-I relative to Parental (Fig. 1c)” value (IFNg 1.00 ng/ml, replicate 1) was 2.73, the “Surface MHC-I (Fig. 1b)” value (IFNg 1.00 ng/ml, replicate 2) was 4959 and the “Surface MHC-I relative to Parental (Fig. 1c)” value (IFNg 1.00 ng/ml, replicate 2) was 2.67. The “Surface MHC-I (Fig. 1b)” value (IFNg 1.00 ng/ml, replicate 3) was 6900, the “Surface MHC-I relative to Parental (Fig. 1c)” value (IFNg 1.00 ng/ml, replicate 3) was 2.19 and the “Surface MHC-I (Fig. 1b)” value (IFNg 1.00 ng/ml, replicate 4) was 9888. For the same substance, the “Surface MHC-I relative to Parental (Fig. 1c)” value (IFNg 1.00 ng/ml, replicate 4) was 2.56, the “Surface MHC-I (Fig. 1b)” value (IFNg Nil, replicate 1) was 267 and the “Surface MHC-I relative to Parental (Fig. 1c)” value (IFNg Nil, replicate 1) was 0.97. The “Surface MHC-I (Fig. 1b)” value (IFNg Nil, replicate 2) was 322, the “Surface MHC-I relative to Parental (Fig. 1c)” value (IFNg Nil, replicate 2) was 1.05 and the “Surface MHC-I (Fig. 1b)” value (IFNg Nil, replicate 3) was 345. For the same substance, the “Surface MHC-I relative to Parental (Fig. 1c)” value (IFNg Nil, replicate 3) was 1.07, the “Surface MHC-I (Fig. 1b)” value (IFNg Nil, replicate 4) was 296 and the “Surface MHC-I relative to Parental (Fig. 1c)” value (IFNg Nil, replicate 4) was 1.15.
